Type in all cases: in vivo, human
The test system of data set [1] is women undergoing COH and subsequent IVF and ET. Put plainly: safety and tolerability in the clinical trial of COH with subsequent IVF and ET. The conditions noted are these: daily subcutaneous 2.0 mg cetrorelix without recLH. From the text:
(§1) Although this treatment is suitable for all types of IVF patients (e.g. within the age range 18 to 45 years, with or without displaying polycystic ovarian syndrome and with or without a regular cycle), the following selection criteria are set forth in the investigation: healthy female partners of infertile couples; age at the time of screening between 20 and 39 years; a regular menstrual cycle, and willing to give a written informed consent. However, no special precautions concerning body weight or body mass index are taken.
(§2) Prior to the first administration of recombinant FSH a blood sample is taken for hormone analysis (estradiol and LH) and a standard urinary hCG assay is performed to exclude pregnancy. Recombinant FSH treatment is started at day 2 or 3 of menses by a daily subcutaneous injection until the day of hCG administration. During the first 5 days of recombinant FSH treatment the daily dose is fixed to 150 IU. […]
(§3) A subcutaneous injection with urinary hCG (10,000 IU) is administered, when at least three follicles exceed a diameter of 17 mm as measured by ultrasound scan and subsequently oocyte retrieval is performed typically 30-36 hours later.

A further data set has as its system IVF-patients. Put plainly: implantation and pregnancy rates after IVF and embryo transfer following COH.
Excerpt: as §1
Prior to the first administration of recombinant FSH a blood sample is taken for hormone analysis (estradiol and LH) and a standard urinary hCG assay is performed to exclude pregnancy. Recombinant FSH treatment is started at day 2 or 3 of menses by a daily subcutaneous injection until the day of hCG administration. During the first 5 days of recombinant FSH treatment the daily dose is fixed to 150 IU. Starting at day 6, blood samples for hormone analysis are taken once every two days prior to drug administration and ultrasonographic monitoring of follicle growth is performed to adjust, if necessary, the daily injectable doses of recombinant FSH.
as §3
Oocytes are retrieved from the human females that have undergone COH as set forth in example 1. The oocytes are subsequently fertilized in vitro and two days later no more than two embryos are transferred to the uterus of the patient. […] Lower implantation and pregnancy rates are obtained in IVF-patients, in whom premature LH surges are prevented by a daily dose of 0.25 mg cetrorelix.

Data set [2] has as its system premature endogenous LH-surge. Put plainly: open-label controlled clinical trial: premature endogenous LH-surge prevention in COH. The note with it: daily subcutaneous 2.0 mg cetrorelix without recLH.
Excerpt: as §1, §2, §3

Data set [3] relates to premature endogenous LH-surge. Put plainly: Examples 1 and 2 repeated using ganirelix instead of cetrorelix. The conditions noted are these: 2.0 mg ganirelix instead of 2.0 mg cetrorelix.
Excerpt: as §1, §2
A subcutaneous injection with urinary hCG (10,000 IU) is administered, when at least three follicles exceed a diameter of 17 mm as measured by ultrasound scan and subsequently oocyte retrieval is performed typically 30-36 hours later. […]

[4] abbreviates: daily 2.0 mg cetrorelix without co-administered recLH.

Non-standard residues stand in square brackets, D forms with d. Residues, ends and D or L forms follow the SMILES beside them. d(hArg(Et2)) = CCN=C(NCC)NCCCC[C@@H](N)C(=O)O; hArg(Et2) = CCN=C(NCC)NCCCC[C@H](N)C(=O)O; dPhe(4-Cl) = N[C@H](Cc1ccc(Cl)cc1)C(=O)O; d2Nal = N[C@H](Cc1ccc2ccccc2c1)C(=O)O; dCit = NC(=O)NCCC[C@@H](N)C(=O)O; d3Pal = N[C@H](Cc1cccnc1)C(=O)O

These results are taken from US7815912B2, “Method of controlled ovarian hyperstimulation and pharmaceutical kit for use in such method” (Ares Trading, S.A., priority 2002, dated 2010).

For the compound `CC(=O)N[C@H](Cc1ccc2ccccc2c1)C(=O)N[C@H](Cc1ccc(Cl)cc1)C(=O)N[C@H](Cc1cccnc1)C(=O)N[C@@H](CO)C(=O)N[C@@H](Cc1ccc(O)cc1)C(=O)N[C@H](CCCNC(N)=O)C(=O)N[C@@H](CC(C)C)C(=O)N[C@@H](CCCNC(=N)N)C(=O)N1CCC[C@H]1C(=O)N[C@H](C)C(N)=O` [cetrorelix] (Ac-[d2Nal][dPhe(4-Cl)][d3Pal]SY[dCit]LRP[dA]-NH2), in data set [1], the adverse effects entry is “no apparent adverse effects” and the tolerability result was “well-tolerated”. In addition, in the data set on IVF-patients (daily 0.25 mg cetrorelix), the “implantation rates (rank among three treatment groups)” value is recorded as “Lower” and the “pregnancy rates (rank among three treatment groups)” value was “Lower”. In the data set with IVF-patients (setting [4]), the “implantation rates (rank among three treatment groups)” value is recorded as “lowest” and the “pregnancy rates (rank among three treatment groups)” value is “lowest”. Besides, the “efficacy in preventing a premature LH-rise” value in data set [2] (compared with 0.25 mg) is on record as “more efficacious”. Moreover, the “effectiveness in preventing a premature LH-rise in patients with bodyweight of more than 75 kg” value in data set [2] (IVF patients undergoing COH, bodyweight more than 75 kg) is on record as “especially apparent”.
Turning to `CCN=C(NCC)NCCCC[C@H](NC(=O)[C@H](CC(C)C)NC(=O)[C@@H](CCCCNC(=NCC)NCC)NC(=O)[C@H](Cc1ccc(O)cc1)NC(=O)[C@H](CO)NC(=O)[C@@H](Cc1cccnc1)NC(=O)[C@@H](Cc1ccc(Cl)cc1)NC(=O)[C@@H](Cc1ccc2ccccc2c1)NC(C)=O)C(=O)N1CCC[C@H]1C(=O)N[C@H](C)C(N)=O` [ganirelix] (Ac-[d2Nal][dPhe(4-Cl)][d3Pal]SY[d(hArg(Et2))]L[hArg(Et2)]P[dA]-NH2), the “results (LH-rise prevention, tolerability, implantation and pregnancy rates) compared with examples 1 and 2” value in data set [3] is “very similar”.
